The results in this text go back to US20250388623A1, “PEPTIDE INHIBITOR AND USE THEREOF” (CHENGDU BRILLIANT INSPIRATION BIOTHERAPEUTICS CO., LTD, priority 2022, published 2025).

Bridge positions count the residues as written; N and C are the ends. Peptide text beside a SMILES is read from it.

Type in all cases: in vivo
Test [1] relates to P-Smad2/3. Nature of the test: P-Smad2/3 content in lung tissue, BLM mouse fibrosis model. The following applies: single intratracheal dose 3 mg/kg on Day 7, lung 24 h later, BLM model group = 100.00. In outline: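 Male C57/6J mice (6–8 weeks, 18–20 g, n=8/group) received intratracheal bleomycin 0.7 USP/kg on Day 1, then a single intratracheal 3 mg/kg peptide dose or saline on Day 7. Values are expressed as the treated/model content ratio.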

In test [2] the test system is mouse lung fibrosis model induced by bleomycin (BLM). Description: Inflammatory and fibrotic pathology (HE, Masson's trichrome) in BLM mouse fibrosis model. The following applies: for Inflammatory score Mean: 3 mg/kg intratracheal twice weekly x4 from Day 8, Day 21, HE staining, BLM model 2.25, negative control 0.36; for Fibrosis score Mean: 3 mg/kg intratracheal twice weekly x4 from Day 8, Day 21, Masson's trichrome, BLM model 3.25, negative control 1.01. More on the design: scale not given here. The method, then: This Example was to assess the inhibitory effect of polypeptides on fibrotic pathology. 6- to 8-week-old male C57/6J mice weighing 18-20 g were used as subjects for the study. The experimental animals were randomized into groups, 6 animals in each group. On the day of modeling (Day 1), a single dose of 0.7 USP/kg of BLM solution was administered via the tracheal route to the BLM group and each peptide-treated group to induce the model. The negative control group received an equal volume of saline. Treatment dosing started on Day 8. Each peptide-treated group received the peptide drug intratracheally at a dosage of 3 mg/kg, while the positive control group received the peptide of SEQ ID NO: 50 at the same dosage, and the administration frequency was twice a week, with a total of 4 administrations. The BLM model group and the negative control group received an equal volume of solvent (saline) as a control. The procedure followed that described in Example 4.
On Day 21, the lung tissues were dissected, washed with saline to remove blood stains, and dried with gauze. Histopathological analysis was then performed on the dissected lung tissues. The lung tissues were perfused with 0.5 mL of paraformaldehyde via the trachea and placed in 4 mL of paraformaldehyde. A small amount of gauze was added to ensure the lung tissues were completely immersed in the fixative solution. The tissues were fixed for more than 24 hours. One lobe of the left lung and four lobes of the right lung were trimmed to the maximum coronal plane, placed in an embedding cassette, dehydrated overnight, and then paraffin-embedded to make 3 μm sections. An autostainer (Leica, model ST5010) was used for Hematoxylin (Herst, lot no. 201905)-Eosin (Chron, lot no.2018070301) (HE) staining, and MASSON'S trichrome (Celestineblue, Chron, lot no. MKCH8129; Aniline blue, Yuanye, lot no. H70J11S115483; Ponceau, Sigma, lot no. SHBM2047) staining. After mounting the sections, they were scanned using a digital panoramic scanner (Zhiyue, model WS-10). For each lung lobe, ≤10 visual fields were captured under a 20× magnification. The severity of inflammation and the severity of fibrosis were assessed using HE staining and Masson's trichrome staining, respectively, to evaluate the inhibitory effects of the polypeptides on inflammatory infiltration and fibrotic deposition at pathological fibrotic sites.

Test [3] deals with rat fibrotic disease model (bleomycin). Nature of the test: Lung index and fibrotic pathology (Masson's trichrome) in bleomycin rat fibrosis model. Particulars: for Lung index Mean(‰): 2 mg/kg intratracheal twice weekly x4 from Day 1, Day 15, BLM model 8.63, negative control 4.62; for Fibrosis score Mean: 2 mg/kg intratracheal twice weekly x4 from Day 1, Day 15, Masson's trichrome, BLM model 3.34, negative control 0.96. The method, then:
This Example was to assess the inhibitory effect of polypeptide administration on the expression levels of pro-fibrotic factors at pathological fibrotic sites. 6- to 8-week-old male SD rats weighing 200 to 220 g were used as subjects for the study. The experimental animals were randomized into groups, 6 animals in each group. On the day of modeling (Day 1), a single dose of 1.8 USP/kg of bleomycin solution was administered via the tracheal route to the BLM model group and each peptide-treated group to induce the model. The negative control group was given an equal volume of saline. Starting on Day 1, each peptide-treated group received intratracheal administration of the peptide at a dosage of 2 mg/kg, with a dosing frequency of twice a week, for a total of four administrations. The BLM model group and the negative control group received an equal volume of solvent (saline) as a control, with the volume being 100 μL. The procedure followed that described in Example 4.
On Day 15, the lung tissues were dissected, washed with saline to remove blood stains, dried with gauze, and weighed. The lung index was calculated (lung index=(wet lung weight/body weight)×1000. This index reflects the general condition of the lung tissue, including edema, inflammation, and fibrosis). Histopathological analysis was performed on the dissected lung tissues. The lung tissues were perfused with 5 mL of paraformaldehyde via the trachea and placed in 40 mL of paraformaldehyde. A small amount of gauze was added to ensure the lung tissues were completely immersed in the fixative solution. The tissues were fixed for more than 24 hours. One lobe of the left lung and four lobes of the right lung were trimmed to the maximum coronal plane, and the left and right lungs were individually placed in two embedding cassettes, and then paraffin-embedded to make 3 μm sections. Masson's trichrome staining was performed as described in Example 7. After digital scanning, for each lung lobe, ≤10 visual fields were captured under a 10× magnification. The severity score of fibrosis was assessed to evaluate the inhibitory effects of the polypeptides on fibrotic deposition at pathological fibrotic sites.

As to `C[C@@H]1NC(=O)[C@H]([C@@H](C)O)NC(=O)[C@H](CC(N)=O)NC(=O)[C@H](CC(=O)O)NC(=O)[C@H](CCC(=O)O)NC(=O)[C@@H]2CCCN2C(=O)[C@H](CC(=O)O)NC(=O)[C@H](CCC(N)=O)NC(=O)[C@H]([C@@H](C)O)NC(=O)[C@H](CO)NC1=O` [SEQ ID NO: 46, cyclo[Thr-Gln-Asp-Pro-Glu-Asp-Asn-Thr-Ala-Ser]] (cyclo(ASTQDPEDNT)), the “P-Smad2/3 content in lung tissue, ratio to model group, Mean(%)” value in test [1] is 74.60%.

For the molecule “Ac-TQDAEDNTASH-NH2 [SEQ ID NO: 33, Ac-Thr-Gln-Asp-Ala-Glu-Asp-Asn-Thr-Ala-Ser-His-NH2]”, the “P-Smad2/3 content in lung tissue, ratio to model group, Mean(%)” value in test [1] is 71.09%. In test [2], the “Inflammatory score Mean” value turned out to be 1.27 and the “Fibrosis score Mean” value came out at 2.64. Also, in test [3], the “Lung index Mean(‰)” value is given as 7.37 ‰ and the “Fibrosis score Mean” value is listed as 2.63.

With `CC(=O)N[C@H](C(=O)N[C@H]1CSSC[C@@H](C(=O)O)NC(=O)[C@H](CC(N)=O)NC(=O)[C@H](CC(=O)O)NC(=O)[C@H](CCC(=O)O)NC(=O)[C@H](C)NC(=O)[C@H](CC(=O)O)NC1=O)[C@@H](C)O` [SEQ ID NO: 43, Ac-Thr-cyclo[Cys-Asp-Ala-Glu-Asp-Asn-Cys]] (Ac-TCDAEDNC-OH; disulfide 2-8), the “P-Smad2/3 content in lung tissue, ratio to model group, Mean(%)” value in test [1] amounted to 49.30%. In test [2], the “Inflammatory score Mean” value worked out at 1.46 and the “Fibrosis score Mean” value is given as 2.59. For the same molecule, in test [3], the “Lung index Mean(‰)” value is listed as 7.11 ‰ and the “Fibrosis score Mean” value was found to be 2.72.

For the molecule `C[C@@H]1NC(=O)[C@H](CC(=O)O)NC(=O)[C@H](CCC(N)=O)NC(=O)[C@H]([C@@H](C)O)NC(=O)[C@H](CC(N)=O)NC(=O)[C@H](CC(=O)O)NC(=O)[C@H](CCC(=O)O)NC1=O` [SEQ ID NO: 40, cyclo[Thr-Gln-Asp-Ala-Glu-Asp-Asn]] (cyclo(AEDNTQD)), the “P-Smad2/3 content in lung tissue, ratio to model group, Mean(%)” value in test [1] (3 mg/kg) is 83.20%.

Consider “Ac-TQDAEDPTAS-NH2 [SEQ ID NO: 25, Ac-Thr-Gln-Asp-Ala-Glu-Asp-Pro-Thr-Ala-Ser-NH2]”, for which the “P-Smad2/3 content in lung tissue, ratio to model group, Mean(%)” value in test [1] is reported as 65.07%. In addition, in test [2], the “Inflammatory score Mean” value was found to be 1.39 and the “Fibrosis score Mean” value is on record as 2.47. In addition, in test [3], the “Lung index Mean(‰)” value is 7.42 ‰ and the “Fibrosis score Mean” value came out at 2.62.

In the case of “Ac-TQDAEDN-NH2 [SEQ ID NO: 06, Ac-Thr-Gln-Asp-Ala-Glu-Asp-Asn-NH2]”, the “P-Smad2/3 content in lung tissue, ratio to model group, Mean(%)” value in test [1] worked out at 54.89%. In test [2], the “Inflammatory score Mean” value came out at 1.65 and the “Fibrosis score Mean” value came out at 2.65. Besides, in test [3], the “Lung index Mean(‰)” value was 7.17 ‰ and the “Fibrosis score Mean” value was determined as 2.66.

Turning to `CC(=O)N[C@H](C(=O)N[C@H]1CSSC[C@@H](C(N)=O)NC(=O)[C@H](CC(N)=O)NC(=O)[C@H](CC(=O)O)NC(=O)[C@H](CCC(=O)O)NC(=O)[C@H](C)NC(=O)[C@H](CC(=O)O)NC1=O)[C@@H](C)O` [SEQ ID NO: 44, Ac-Thr-cyclo[Cys-Asp-Ala-Glu-Asp-Asn-Cys]-NH2] (Ac-TCDAEDNC-NH2; disulfide 2-8), in test [1], the “P-Smad2/3 content in lung tissue, ratio to model group, Mean(%)” value was 79.93%.

For “Ac-TQDPEDNTAS-NH2 [SEQ ID NO: 26, Ac-Thr-Gln-Asp-Pro-Glu-Asp-Asn-Thr-Ala-Ser-NH2]”, in test [1], the “P-Smad2/3 content in lung tissue, ratio to model group, Mean(%)” value is 76.78%. Moreover, in test [2], the “Inflammatory score Mean” value is given as 0.95 and the “Fibrosis score Mean” value was 2.05. Further, in test [3], the “Lung index Mean(‰)” value was 7.17 ‰ and the “Fibrosis score Mean” value was determined as 2.43.

Regarding “Ac-TQDAEDPTA-NH2 [SEQ ID NO: 22, Ac-Thr-Gln-Asp-Ala-Glu-Asp-Pro-Thr-Ala-NH2]”, in test [1], the “P-Smad2/3 content in lung tissue, ratio to model group, Mean(%)” value was 55.32%. In addition, in test [2], the “Inflammatory score Mean” value is on record as 1.43 and the “Fibrosis score Mean” value is reported as 2.33. In test [3], the “Lung index Mean(‰)” value is 7.39 ‰ and the “Fibrosis score Mean” value turned out to be 2.70.
